Assays:
C57BL/6 mice [1] = experiment: Systolic blood pressure by tail cuff method in IL-2 treated mice; assay type: in vivo
Protocol: Systolic blood pressure was measured via tail cuff method (Stoelting, Wood Dell, Ill.) using PowerLab digital signal transducer (AD instruments, Mountain View, Calif.). […] The lower limit of blood pressure detectable using this instrumentation is about 40 mm of Hg. This value of blood pressure was assigned whenever no detectable value could be obtained.
(§1) 1400 W was dissolved at a concentration of 1M in sterile PBS and administered via continuous subcutaneous infusion by Alzet mini osmotic pumps (Model 2001, Alzet Corporation, Cupertino, Calif.). Each pump contained 225 μL of solution that released a constant volume of 28 μL/day, resulting in a calculated delivery of 7 mg 1400 W/mouse/day.
(§2) MLA was dissolved in sterile ultra-filtered water at a concentration of 3.38M and loaded into pre-equilibrated osmotic pumps containing 225 μL of solution that released a constant volume of 28 μL/day, resulting in a calculated delivery of 18.5 mg MLA/mouse/day.

C57BL/6 mice [2] = experiment: VLS evaluation: [125I]-labeled albumin accumulation in peritoneal fluid of IL-2 treated mice; assay type: in vivo; conditions: for Effect on IL-2 induced radio-albumin accumulation in peritoneal fluid / VLS: given with IL-2, M40403: iNOS WT or iNOS−/− mice, 1400 W: IL-2 treated mice; for [125I] labeled albumin retention in peritoneal fluid: MLA 18.5 mg/mouse/day s.c. during IL-2 treatment
Protocol: Peritoneal fluid was collected using blotting paper. Liver, spleen, intestines, kidneys, lungs and heart were also excised and analyzed for [^125l]-albumin accumulation. Data was expressed as percentage of radiolabeled albumin recovered from each tissue with the total amount recovered from each animal. This form of analysis minimizes differences induced by variability in injection technique.
as §1, §2

peritoneal exudate cells = experiment: Inhibition of NO synthesis in IFNγ/LPS-stimulated peritoneal exudate cells (Griess reaction); assay type: cell-based; conditions: 48 hours; highest concentration MLA 1 mM, Polymethylarginine 400 uM
Protocol: First, peritoneal exudate cells were elicited by thioglycolate. These cells were then harvested and cultured in 96 well microtiter wells at 1×10^6 overnight in DMEM media with 5% FCS. Media was then replaced with DMEM containing 50 Units/ml of IFNγ and 100 ng/ml bacterial lipopolysaccharide. Serial dilutions of either N^G-monomethy-L-larginine (MLA) or Polymethylarginine (poly-MLA 7-mer) were then added to experimental wells. The highest concentration of MLA was 1 mM and of Polymethylarginine was 400 uM.
The cultures were then incubated for 48 hours and culture supernatants were assayed for the NO metabolite nitrate using the Griess reaction after nitrate reduction.

[3] = Retention of modified NOS inhibitors in the vasculature; conditions: due to their size
[4] = iNOS−/− mice, given together with IL-2

## [Cl-].[Cl-].[Mn+2].c1cc2nc(c1)CN[C@@H]1CCCC[C@H]1NCCN[C@@H]1CCCC[C@H]1NC2 [M40403]
C57BL/6 mice [1]; [4]
  Systolic blood pressure: 85±5 mm of Hg
C57BL/6 mice [2]
  Effect on IL-2 induced radio-albumin accumulation in peritoneal fluid / VLS: did not reverse

## CNC(=N)NCCC[C@H](N)C(=O)O [MLA, N^G-monomethyl-L-arginine]
C57BL/6 mice [1]; [4]
  Systolic blood pressure: 80±10 mm of Hg
C57BL/6 mice [2]; iNOS WT mice
  [125I] labeled albumin retention in peritoneal fluid: 0.562±0.24%
C57BL/6 mice [2]; iNOS−/− mice
  [125I] labeled albumin retention in peritoneal fluid: 1.66±0.06%
Peritoneal exudate cells
  Effect of serial dilutions on NO production: blocked NO production

## CC(=N)NCc1cccc(CN)c1 [1400 W]
C57BL/6 mice [1]; mice treated with IL-2 plus 1400 W, continuous s.c. infusion 7 mg/mouse/day
  Systolic blood pressure: 45±7 mm of Hg
C57BL/6 mice [2]
  Effect on IL-2 induced radio-albumin accumulation in peritoneal fluid / VLS: did not inhibit

## CNC(=N)NCCC[C@H](NC(=O)[C@H](CCCNC(=N)NC)NC(=O)[C@H](CCCNC(=N)NC)NC(=O)[C@H](CCCNC(=N)NC)NC(=O)[C@H](CCCNC(=N)NC)NC(=O)[C@H](CCCNC(=N)NC)NC(=O)[C@@H](N)CCCNC(=N)NC)C(=O)O [poly-MLA, (N^G-mono-methyl-L-arginine)^7]
[3]
  Retention in the vasculature: retained in the vasculature

Source: US20100158857A1, “Compositions and methods for the inhibition of endothelial nitric oxide synthase activity” (University Of utah Research Foundation, priority 2006, published 2010)
